Data set [1] can be described thus: Prodrug stability assay in bio-relevant media (FaSSIF with Pancreatin), GI Tract stability. Particulars: HPLC peak area of prodrug at 5 h divided by area at 0 h; 0.5 mg/mL Pancreatin in FaSSIF, 37° C. The format is in vitro ADME. On the procedure: The following assay was employed to evaluate the stability of the prodrugs in simulated gastrointestinal tract conditions. Preparation of fasted state simulated intestinal fluid (FaSSIF) using Phares SIF Powder was carried out according to protocols from Phare Drug Delivery AG (Baselland, Switzerland). For sample preparation, 10 μL stock solutions (10 mM) of prodrug substance in DMSO was added to 990 μL of 0.5 mg/mL Pancreatin solution (Fisher CAS#8049-47-6) in FaSSIF. Two samples were prepared for each compound. If the sample was a clear solution, it was directly analyzed by HPLC. If the sample was not clear, the sample was diluted with 100% ACN, maintained at 37° C. and observed 5 h later. If the sample was clear, HPLC analysis was directly performed. If the sample was still not clear, the sample was diluted with 100% ACN and assayed by HPLC. All the samples were vortexed for 3 min and observed before injection. For the diluted samples, the area is multiplied by a factor when the data is analyzed. The analysis was carried out with an Agilent 1100 series HPLC with autosampler. The column was usually a Poroshell 120 EC-C18, 4.6×50 mm, 2.7 μm. The flow rate was 1.8 mL/min, and the injection volume was 5 or 10 μL. UV detection was in the range 210-400 nm. The mobile phase consisted of solvent A (water plus 10 mM tetrabutylammonium bromide) and solvent B (acetonitrile) with a gradient of 90% solvent A at 0 min, changing to 95% solvent B over 6 min, maintaining for 1.5 min, then reverting to 90% solvent A over 1.6 min. The HPLC peak area of the prodrug at 5 h was divided by the HPLC peak area of the prodrug at 0 h, to generate the % claimed parent ratio, which is summarized in Table 2. for GI Tract stability.

For data set [2], the system named is HIV-1 (H9/IIIB strain). The experiment in a line: Multiple round HIV-1 infection assay (Viking assay), HIV-1 replication in MT4-GFP cells. Particulars: MT4-GFP cells infected with HIV-1 H9/IIIB. The format is cell-based. The method, then:
The antiviral activity of the tenofovir prodrugs of the Examples herein was assessed in an assay that measures the rate of replication of HIV in cell culture, termed the Viking assay (VIral KINetics in Green cells) and performed as follows. HIV-1 replication was monitored using MT4-gag-GFP clone D3 (hereafter designated MT4-GFP; GFP is green fluorescent protein), which are MT-4 cells modified to harbor a GFP reporter gene, the expression of which is dependent on the HIV-1 expressed proteins tat and rev; see Wang Y-J et al., 2010J Virological Methods 165:230-237. Productive infection of an MT4-GFP cell with HIV-1 results in GFP expression approximately 24 h post-infection. MT4-GFP cells were maintained at 37° C./5% CO2/90% relative humidity in RPMI 1640 supplemented with 10% fetal bovine serum, 100 U/ml penicillin/streptomycin, and 400 μg/ml G418 to maintain the reporter gene. For infections, MT4-GFP cells were placed in the same medium lacking G418 and infected overnight with HIV-1 (H9/IIIB strain) virus at an approximate multiplicity of infection of 0.01 in the same incubation conditions. Cells were then washed and re-suspended in either RPMI 1640 supplemented with 10% or 50% normal human serum (NHS) at 1.6×10^5 cells/mL (10% NHS or 50% NHS, respectively). Compound plates were prepared by dispensing compounds dissolved in DMSO into wells of 384 well poly-D-lysine-coated plates (0.2 μl/well) using an ECHO acoustic dispenser. Each compound was tested in a 10-point serial 3-fold dilution (typical final concentrations: 8.4 μM-0.42 nM). Controls included no inhibitor (DMSO only) and a combination of three antiviral agents (efavirenz, indinavir, and an integrase strand transfer inhibitor at final concentrations of 4 μM each). Cells were added (50 μL/well) to compound plates and the infected cells were maintained at 37′C/5% CO2/90% relative humidity.
Infected cells were quantified at two time points, ˜48 h and ˜72 h post-infection, by counting the number of green cells in each well using an Acumen eX3 scanner. The increase in the number of green cells over ˜24 h period gives the reproductive ratio, R0, which is typically 5-15 and has been shown experimentally to be in logarithmic phase (data not shown). R0 is calculated for each well, and IC50s determined by non-linear 4-parameter curve fitting.

[3] abbreviates: 10% normal human serum, read-out: Viking, IC50 (10% NHS).
[4] abbreviates: 50% normal human serum, read-out: Viking, IC50 (50% NHS).

Like-named read-outs stand apart in the source and are kept apart here.

Experimental findings from US10745428B2, “Antiviral phosphodiamide prodrugs of tenofovir” (Merck Sharp & Dohme Corp., priority 2015, dated 2020) are described below.

What is called IC50 is the concentration needed to halve the response being measured.

`CCCCCCOC(=O)[C@@H](C)NP(=O)(CO[C@H](C)Cn1cnc2c(N)ncnc21)NC(C)(C)C(=O)OCCCCCC` (single isomer, unassigned) [Example 13B]: the “GI Tract stability” value in data set [1] was found to be 83.8%.
Regarding `CCCCCOC(=O)C(C)(C)NP(=O)(CO[C@H](C)Cn1cnc2c(N)ncnc21)N[C@H](C)C(=O)OC1CCC1` (single isomer, unassigned) [Example 19B], the figures for the half-inhibitory concentration (IC50) in data set [2] (setting [3]) and in data set [2] (setting [4]) were 2.5 nM and 10.8 nM, respectively. Further, in data set [1], the “GI Tract stability” value worked out at 49.3%.
Taken in the same sequence, the figures for `CCCCOC(=O)C(C)(C)NP(=O)(CO[C@H](C)Cn1cnc2c(N)ncnc21)N[C@H](C)C(=O)OC1CCC1` (single isomer, unassigned) [Example 23B] were 6 nM, 13.6 nM and 58.6%.
In the same order, the values of `CCCCCCOC(=O)C(C)(C)NP(=O)(CO[C@H](C)Cn1cnc2c(N)ncnc21)N[C@H](C)C(=O)OCC(C)C` (single isomer, unassigned) [Example 10B] are 0.7 nM, 2 nM and 66.8%.
In the same order, the values of `CCCCCOC(=O)C(C)(C)NP(=O)(CO[C@H](C)Cn1cnc2c(N)ncnc21)N[C@H](C)C(=O)OC(C)C` (single isomer, unassigned) [Example 17B] are 1.3 nM, 5.2 nM and 94.2%.
For the molecule `CCCCCOC(=O)[C@@H](C)N(C)P(=O)(CO[C@H](C)Cn1cnc2c(N)ncnc21)NC(C)(C)C(=O)OCCCCC` (single isomer, unassigned) [Example 25B], the half-maximal inhibitory concentration (IC50) in data set [2] (Human immunodeficiency virus 1, IIIB, 10% normal human serum, read-out: Viking, IC50 (10% NHS)) was 3.6 nM; in data set [2] (Human immunodeficiency virus 1, IIIB, 50% normal human serum, read-out: Viking, IC50 (50% NHS)), 9.6 nM. The “GI Tract stability” value in data set [1] came to 94.4%.
On to `CCCCCOC(=O)[C@@H](C)NP(=O)(CO[C@H](C)Cn1cnc2c(N)ncnc21)NC(C)(C)C(=O)OCCCCC` (single isomer, unassigned) [Example 16B], for which the values for the 50% inhibitory concentration (IC50) in data set [2] (setting [3]) and in data set [2] (setting [4]) were 0.9 nM and 4.2 nM, respectively. Further, in data set [1], the “GI Tract stability” value is 97.8%.
`CCCCCOC(=O)C(C)(C)NP(=O)(CO[C@H](C)Cn1cnc2c(N)ncnc21)N[C@H](C)C(=O)OC1CCCC1` (single isomer, unassigned) [Example 24A]: the IC50 in data set [2] (setting [3]) turned out to be 3.2 nM; in data set [2] (setting [4]) it was 30.6 nM. The “GI Tract stability” value in data set [1] is 97.8%.
Take `CCCCCCOC(=O)C(C)(C)NP(=O)(CO[C@H](C)Cn1cnc2c(N)ncnc21)N[C@H](C)C(=O)OC(C)C` (single isomer, unassigned) [Example 2B]: the IC50 in data set [2] (setting [3]) was determined as 1.3 nM; in data set [2] (setting [4]), 5.2 nM. Also, the “GI Tract stability” value in data set [1] came out at 94.2%.
In the case of `CCCCOC(=O)[C@@H](C)NP(=O)(CO[C@H](C)Cn1cnc2c(N)ncnc21)NC(C)(C)C(=O)OC(C)C` (single isomer, unassigned) [Example 3B], the IC50 in data set [2] (setting [3]) is 3.8 nM; in data set [2] (setting [4]), 20.5 nM. Besides, in data set [1], the “GI Tract stability” value came out at 95.6%.
Taken in the same sequence, the figures for `CCCOC(=O)C(C)(C)NP(=O)(CO[C@H](C)Cn1cnc2c(N)ncnc21)N[C@H](C)C(=O)OC1CCC1` (single isomer, unassigned) [Example 22B] were 4.4 nM, 15.4 nM and 72.6%.
Taken in the same sequence, the figures for `CCCCCOC(=O)[C@H]1CCCN1P(=O)(CO[C@H](C)Cn1cnc2c(N)ncnc21)NC(C)(C)C(=O)OCCCCC` (single isomer, unassigned) [Example 26B] were 4.4 nM, 19.5 nM and 92.5%.
Taken in the same sequence, the figures for `CCCCCOC(=O)C(C)(C)NP(=O)(CO[C@H](C)Cn1cnc2c(N)ncnc21)N[C@H](C)C(=O)OC(C)C` (single isomer, unassigned) [Example 17A] were 15.9 nM, 78 nM and 100%.
Take `CCCOC(=O)C(C)(C)NP(=O)(CO[C@H](C)Cn1cnc2c(N)ncnc21)N[C@H](C)C(=O)OC1CCC1` (single isomer, unassigned) [Example 22A]: the concentration for half-maximal inhibition (IC50) was found to be 11.6 nM in data set [2] (setting [3]) and 50.9 nM in data set [2] (setting [4]). For the same molecule, the “GI Tract stability” value in data set [1] is given as 98.2%.
For the molecule `CC(C)COC(=O)C(C)(C)NP(=O)(CO[C@H](C)Cn1cnc2c(N)ncnc21)N[C@H](C)C(=O)OC1CCC1` (single isomer, unassigned) [Example 20A], the IC50 in data set [2] (setting [3]) turned out to be 5.9 nM; in data set [2] (setting [4]), 17.4 nM. In data set [1], the “GI Tract stability” value was found to be 98.1%.
As to `C[C@H](Cn1cnc2c(N)ncnc21)OCP(=O)(N[C@H](C)C(=O)OC1CCCC1)NC(C)(C)C(=O)OC1CCCCC1` (single isomer, unassigned) [Example 27B], the half-inhibitory concentration (IC50) turned out to be 1.6 nM in data set [2] (setting [3]) and 4.7 nM in data set [2] (setting [4]). Moreover, in data set [1], the “GI Tract stability” value worked out at 93.5%.
In the same order, the values of `CC(C)COC(=O)C(C)(C)NP(=O)(CO[C@H](C)Cn1cnc2c(N)ncnc21)N[C@H](C)C(=O)OC1CCC1` (single isomer, unassigned) [Example 20B] are 1.7 nM, 5.9 nM and 71.0%.
Turning to `CCCCCOC(=O)C(C)(C)NP(=O)(CO[C@H](C)Cn1cnc2c(N)ncnc21)N[C@H](C)C(=O)OCCCC` (single isomer, unassigned) [Example 9A], the half-maximal inhibitory concentration (IC50) in data set [2] (setting [3]) amounted to 6.1 nM; in data set [2] (setting [4]), 19.8 nM. Moreover, the “GI Tract stability” value in data set [1] is 100%.
Taken in the same sequence, the figures for `CCCCCCOC(=O)C(C)(C)NP(=O)(CO[C@H](C)Cn1cnc2c(N)ncnc21)N[C@H](C)C(=O)OC1CCCCC1` (single isomer, unassigned) [Example 15B] were 0.7 nM, 2.1 nM and 51.2%.
In the same order, the values of `CC(C)OC(=O)C(C)(C)NP(=O)(CO[C@H](C)Cn1cnc2c(N)ncnc21)N[C@H](C)C(=O)OC1CCC1` (single isomer, unassigned) [Example 18B] are 11 nM, 25.8 nM and 97.4%.
In the case of `C[C@H](Cn1cnc2c(N)ncnc21)OCP(=O)(N[C@H](C)C(=O)OC1CCCC1)NC(C)(C)C(=O)OC1CCC1` (single isomer, unassigned) [Example 28B], the IC50 in data set [2] (setting [3]) is 2.7 nM; in data set [2] (setting [4]), 3.3 nM. In addition, in data set [1], the “GI Tract stability” value was determined as 90.2%.
As to `CCCCCCOC(=O)C(C)(C)NP(=O)(CO[C@H](C)Cn1cnc2c(N)ncnc21)N[C@H](C)C(=O)OC(C)C` (single isomer, unassigned) [Example 2A], the half-inhibitory concentration (IC50) in data set [2] (setting [3]) was 15.9 nM; in data set [2] (setting [4]), 78 nM. The “GI Tract stability” value in data set [1] is recorded as 100%.
With `CCCCCCOC(=O)C(C)(C)NP(=O)(CO[C@H](C)Cn1cnc2c(N)ncnc21)N[C@H](C)C(=O)OC1CCCC1` (single isomer, unassigned) [Example 14B], the IC50 in data set [2] (setting [3]) was 0.6 nM; in data set [2] (setting [4]), 2 nM. In addition, the “GI Tract stability” value in data set [1] amounted to 47.2%.
